Results reported in ChEMBL document CHEMBL5465560, “Selectivity Literature for EUbOPEN Chemogenomic Library” (2024).
Each block holds one compound with its values, some of them ahead of it.

Legend:
[1] = biological target: AP2-associated protein kinase 1 (Homo sapiens, UniProt Q2M2I8); assay: Selectivity interaction (KinomeScan (DiscoverX)) EUB0001868a AAK1; settings: at 1 µM
[2] = biological target: Ribosomal protein S6 kinase alpha-3 (Homo sapiens, UniProt P51812); assay: Selectivity interaction (ActivX KiNativ screen (kinase selectivity in THP-1 cell lysates)) EUB0000639a RPS6KA3; format: subcellular; settings: lysate, at 5 µM
[3] = biological target: SRSF protein kinase 1 (Homo sapiens, UniProt Q96SB4); assay: Selectivity interaction (Kinase panel (literature)) EUB0001199aCl SRPK1; settings: at 1 µM
[4] = biological target: Hepatocyte growth factor receptor (Homo sapiens, UniProt P08581); assay: Selectivity interaction (Rxn Biology Kinase assay) EUB0001632a MET; settings: at 10 µM
[5] = biological target: DNA (cytosine-5)-methyltransferase 3A (Homo sapiens) (UniProt Q9Y6K1); assay: Selectivity interaction (Methyltransferase screen (radiometric assays, panel of 8 PRMTs, 21 protein lysine methyltransferases, 3 DNA methyltransferases, and one RNA methyltransferase)) EUB0000271b DNMT3A
[6] = biological target: Protein kinase C eta type (Homo sapiens) (UniProt P24723); assay: Selectivity interaction (KinomeScan (DiscoverX)) EUB0000045b PRKCH
[7] = biological target: Cyclin-dependent kinase 9 (Homo sapiens, UniProt P50750); assay: Selectivity interaction (KinomeScan (DiscoverX)) EUB0000655a CDK9; settings: at 10 µM
[8] = biological target: T1, Inhibitor of nuclear factor kappa-B kinase subunit beta (Homo sapiens) (UniProt O14920); assay: Selectivity interaction (KinomeScan (DiscoverX)) EUB0000618a IKBKB; settings: at 10 µM
T1 sequence (whole entry): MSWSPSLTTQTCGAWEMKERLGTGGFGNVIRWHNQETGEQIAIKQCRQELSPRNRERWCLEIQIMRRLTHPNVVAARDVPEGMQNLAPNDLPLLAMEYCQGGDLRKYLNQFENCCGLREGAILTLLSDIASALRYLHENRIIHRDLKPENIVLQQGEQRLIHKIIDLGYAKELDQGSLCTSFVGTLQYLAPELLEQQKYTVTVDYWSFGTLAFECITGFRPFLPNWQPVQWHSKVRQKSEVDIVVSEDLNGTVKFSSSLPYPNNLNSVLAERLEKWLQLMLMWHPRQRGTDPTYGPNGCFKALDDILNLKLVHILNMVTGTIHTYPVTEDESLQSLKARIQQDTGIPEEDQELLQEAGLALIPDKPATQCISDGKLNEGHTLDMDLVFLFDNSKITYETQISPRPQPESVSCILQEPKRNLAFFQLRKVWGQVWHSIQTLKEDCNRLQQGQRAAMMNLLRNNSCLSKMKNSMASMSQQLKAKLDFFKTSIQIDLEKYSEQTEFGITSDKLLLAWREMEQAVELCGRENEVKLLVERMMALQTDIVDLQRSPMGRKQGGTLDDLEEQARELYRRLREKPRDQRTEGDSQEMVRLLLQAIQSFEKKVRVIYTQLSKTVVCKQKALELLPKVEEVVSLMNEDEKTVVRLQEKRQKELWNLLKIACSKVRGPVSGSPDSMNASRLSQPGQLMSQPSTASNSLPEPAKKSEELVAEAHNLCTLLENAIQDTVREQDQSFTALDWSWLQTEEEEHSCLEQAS

[9] = biological target: T2, Ephrin type-A receptor 1 (Homo sapiens) (UniProt P21709); assay: Selectivity interaction (KinomeScan (DiscoverX)) EUB0000618a EPHA1; settings: at 10 µM
T2 sequence (whole entry): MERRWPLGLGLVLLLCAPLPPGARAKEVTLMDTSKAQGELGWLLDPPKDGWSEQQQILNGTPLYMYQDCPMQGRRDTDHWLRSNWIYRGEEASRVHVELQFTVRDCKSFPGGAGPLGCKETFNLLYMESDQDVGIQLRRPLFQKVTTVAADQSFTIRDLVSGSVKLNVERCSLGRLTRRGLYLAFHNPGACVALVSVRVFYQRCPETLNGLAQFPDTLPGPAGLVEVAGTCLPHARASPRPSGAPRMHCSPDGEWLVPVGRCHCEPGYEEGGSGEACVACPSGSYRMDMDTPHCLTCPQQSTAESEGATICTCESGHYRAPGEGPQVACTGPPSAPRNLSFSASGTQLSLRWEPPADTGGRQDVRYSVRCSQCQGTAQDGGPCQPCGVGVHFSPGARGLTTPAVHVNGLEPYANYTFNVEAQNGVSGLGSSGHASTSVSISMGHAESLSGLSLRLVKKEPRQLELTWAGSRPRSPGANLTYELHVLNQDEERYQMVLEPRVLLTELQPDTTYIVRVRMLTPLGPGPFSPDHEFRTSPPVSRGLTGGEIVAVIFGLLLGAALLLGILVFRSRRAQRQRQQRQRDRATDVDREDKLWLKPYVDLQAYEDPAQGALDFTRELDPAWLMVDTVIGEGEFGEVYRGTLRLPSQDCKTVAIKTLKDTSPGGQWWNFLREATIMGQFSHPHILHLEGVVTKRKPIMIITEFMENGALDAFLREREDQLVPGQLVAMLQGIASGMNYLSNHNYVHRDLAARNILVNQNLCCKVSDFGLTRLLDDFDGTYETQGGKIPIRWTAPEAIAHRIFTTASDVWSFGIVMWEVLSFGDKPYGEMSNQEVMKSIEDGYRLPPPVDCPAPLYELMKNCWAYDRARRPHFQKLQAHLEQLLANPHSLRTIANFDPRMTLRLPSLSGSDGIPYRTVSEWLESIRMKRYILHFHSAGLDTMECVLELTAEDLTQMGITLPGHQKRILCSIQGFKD

[10] = test system: Epidermal growth factor receptor (Homo sapiens), P00533 [UNDEFINED MUTATION]; assay: Selectivity interaction (KinomeScan (DiscoverX)) EUB0000618a EGFR; settings: at 10 µM
[11] = biological target: T3, Aurora kinase C (Homo sapiens) (UniProt Q9UQB9); assay: Selectivity interaction (KinomeScan (DiscoverX)) EUB0000607a AURKC; settings: at 10 µM
T3 sequence (whole entry): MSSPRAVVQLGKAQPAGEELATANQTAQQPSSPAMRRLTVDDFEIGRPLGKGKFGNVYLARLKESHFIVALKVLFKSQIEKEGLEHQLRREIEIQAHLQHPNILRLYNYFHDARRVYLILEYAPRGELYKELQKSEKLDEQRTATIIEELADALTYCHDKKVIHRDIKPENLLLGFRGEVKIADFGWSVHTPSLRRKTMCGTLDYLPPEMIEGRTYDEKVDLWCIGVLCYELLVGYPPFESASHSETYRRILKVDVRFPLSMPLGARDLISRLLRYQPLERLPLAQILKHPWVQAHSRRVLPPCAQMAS

[12] = biological target: Histone-lysine N-methyltransferase KMT5C (Homo sapiens) (UniProt Q86Y97); assay: Selectivity interaction (Methyltransferase screen (Scintillation proximity assays)) EUB0000255b SUV420H2
Histone-lysine N-methyltransferase KMT5C (Homo sapiens), sequence (Q86Y97 whole entry, looked up): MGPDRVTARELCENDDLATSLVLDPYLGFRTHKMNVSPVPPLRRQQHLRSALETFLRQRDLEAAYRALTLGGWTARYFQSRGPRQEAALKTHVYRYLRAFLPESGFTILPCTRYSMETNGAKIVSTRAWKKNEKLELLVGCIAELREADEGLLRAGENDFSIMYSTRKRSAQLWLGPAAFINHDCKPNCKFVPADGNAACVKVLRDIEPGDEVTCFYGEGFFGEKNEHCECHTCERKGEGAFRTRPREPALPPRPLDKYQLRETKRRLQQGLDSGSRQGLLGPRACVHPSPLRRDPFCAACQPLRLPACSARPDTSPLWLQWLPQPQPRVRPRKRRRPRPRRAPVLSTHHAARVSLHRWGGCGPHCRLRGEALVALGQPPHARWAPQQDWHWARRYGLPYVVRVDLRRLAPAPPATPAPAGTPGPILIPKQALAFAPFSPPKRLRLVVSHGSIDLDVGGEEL

DNA (cytosine-5)-methyltransferase 3A (Homo sapiens), sequence (Q9Y6K1 whole entry, looked up): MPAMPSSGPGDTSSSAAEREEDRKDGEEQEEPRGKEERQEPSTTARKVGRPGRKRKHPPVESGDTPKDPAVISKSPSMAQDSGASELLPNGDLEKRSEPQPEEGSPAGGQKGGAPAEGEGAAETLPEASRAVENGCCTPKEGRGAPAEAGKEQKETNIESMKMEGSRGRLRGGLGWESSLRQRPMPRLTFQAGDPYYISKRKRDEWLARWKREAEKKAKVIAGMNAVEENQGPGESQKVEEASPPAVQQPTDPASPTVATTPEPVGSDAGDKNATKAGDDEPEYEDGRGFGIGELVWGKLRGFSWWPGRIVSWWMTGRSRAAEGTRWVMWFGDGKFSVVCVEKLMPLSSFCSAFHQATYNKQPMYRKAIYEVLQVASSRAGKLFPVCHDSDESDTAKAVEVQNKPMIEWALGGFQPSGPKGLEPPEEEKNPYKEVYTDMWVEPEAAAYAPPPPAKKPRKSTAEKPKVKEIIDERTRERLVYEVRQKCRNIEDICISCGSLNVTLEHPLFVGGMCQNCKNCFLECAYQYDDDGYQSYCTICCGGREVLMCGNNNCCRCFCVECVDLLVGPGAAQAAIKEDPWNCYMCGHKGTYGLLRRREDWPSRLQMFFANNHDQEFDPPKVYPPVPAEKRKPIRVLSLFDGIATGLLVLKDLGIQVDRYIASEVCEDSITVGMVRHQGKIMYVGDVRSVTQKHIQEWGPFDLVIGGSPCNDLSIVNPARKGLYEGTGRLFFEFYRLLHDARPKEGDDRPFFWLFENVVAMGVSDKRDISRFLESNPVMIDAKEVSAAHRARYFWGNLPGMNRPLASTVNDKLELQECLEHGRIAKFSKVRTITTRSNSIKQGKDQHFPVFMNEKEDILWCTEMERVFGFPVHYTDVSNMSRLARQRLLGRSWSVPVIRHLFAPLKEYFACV
Protein kinase C eta type (Homo sapiens), sequence (P24723 whole entry): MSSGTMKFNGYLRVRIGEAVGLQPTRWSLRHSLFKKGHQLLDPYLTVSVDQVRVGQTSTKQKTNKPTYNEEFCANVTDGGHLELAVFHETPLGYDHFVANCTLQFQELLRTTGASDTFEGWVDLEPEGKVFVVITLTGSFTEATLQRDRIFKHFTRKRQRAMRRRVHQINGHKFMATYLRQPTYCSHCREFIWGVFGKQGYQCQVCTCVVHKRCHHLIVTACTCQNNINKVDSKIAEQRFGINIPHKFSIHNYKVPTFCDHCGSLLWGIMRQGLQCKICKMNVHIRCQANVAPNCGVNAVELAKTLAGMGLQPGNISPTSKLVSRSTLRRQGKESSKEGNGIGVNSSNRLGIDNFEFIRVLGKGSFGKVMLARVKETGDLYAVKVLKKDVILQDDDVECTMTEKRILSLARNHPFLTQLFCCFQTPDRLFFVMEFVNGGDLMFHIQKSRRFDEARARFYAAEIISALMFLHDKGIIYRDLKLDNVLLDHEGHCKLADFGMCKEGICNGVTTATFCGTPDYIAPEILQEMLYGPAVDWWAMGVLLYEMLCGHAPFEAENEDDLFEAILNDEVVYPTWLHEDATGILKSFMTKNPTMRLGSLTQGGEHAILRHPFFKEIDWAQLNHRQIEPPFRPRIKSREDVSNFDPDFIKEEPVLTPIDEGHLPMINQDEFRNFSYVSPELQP
Cyclin-dependent kinase 9, sequence (P50750 whole entry): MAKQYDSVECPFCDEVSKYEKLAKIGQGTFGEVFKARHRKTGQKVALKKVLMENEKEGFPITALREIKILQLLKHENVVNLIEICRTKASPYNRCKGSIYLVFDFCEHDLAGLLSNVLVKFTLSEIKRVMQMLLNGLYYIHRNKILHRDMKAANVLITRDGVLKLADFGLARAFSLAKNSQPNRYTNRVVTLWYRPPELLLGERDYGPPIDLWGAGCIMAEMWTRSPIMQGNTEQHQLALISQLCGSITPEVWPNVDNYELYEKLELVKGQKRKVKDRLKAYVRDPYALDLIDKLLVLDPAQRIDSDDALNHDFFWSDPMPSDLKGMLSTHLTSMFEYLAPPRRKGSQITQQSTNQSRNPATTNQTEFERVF
Ribosomal protein S6 kinase alpha-3, sequence (P51812 whole entry): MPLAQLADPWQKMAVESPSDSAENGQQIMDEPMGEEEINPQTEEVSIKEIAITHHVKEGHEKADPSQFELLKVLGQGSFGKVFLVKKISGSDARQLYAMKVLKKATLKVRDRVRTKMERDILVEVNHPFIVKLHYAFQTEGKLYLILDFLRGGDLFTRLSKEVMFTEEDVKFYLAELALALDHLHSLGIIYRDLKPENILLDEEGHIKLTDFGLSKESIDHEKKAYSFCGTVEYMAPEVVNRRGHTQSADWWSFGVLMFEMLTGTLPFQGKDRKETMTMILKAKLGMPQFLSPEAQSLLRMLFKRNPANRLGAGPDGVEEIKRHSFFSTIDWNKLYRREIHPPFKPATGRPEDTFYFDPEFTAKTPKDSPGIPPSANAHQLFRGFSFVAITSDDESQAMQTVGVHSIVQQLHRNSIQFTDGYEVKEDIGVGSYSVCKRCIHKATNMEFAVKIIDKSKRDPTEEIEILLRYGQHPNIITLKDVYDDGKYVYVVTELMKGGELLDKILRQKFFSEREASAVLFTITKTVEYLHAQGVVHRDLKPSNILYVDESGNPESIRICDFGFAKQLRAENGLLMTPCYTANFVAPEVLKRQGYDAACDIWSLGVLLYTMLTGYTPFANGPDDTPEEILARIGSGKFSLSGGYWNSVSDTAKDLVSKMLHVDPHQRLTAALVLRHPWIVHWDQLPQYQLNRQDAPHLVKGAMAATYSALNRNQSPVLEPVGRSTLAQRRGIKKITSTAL
Hepatocyte growth factor receptor, sequence (P08581 whole entry): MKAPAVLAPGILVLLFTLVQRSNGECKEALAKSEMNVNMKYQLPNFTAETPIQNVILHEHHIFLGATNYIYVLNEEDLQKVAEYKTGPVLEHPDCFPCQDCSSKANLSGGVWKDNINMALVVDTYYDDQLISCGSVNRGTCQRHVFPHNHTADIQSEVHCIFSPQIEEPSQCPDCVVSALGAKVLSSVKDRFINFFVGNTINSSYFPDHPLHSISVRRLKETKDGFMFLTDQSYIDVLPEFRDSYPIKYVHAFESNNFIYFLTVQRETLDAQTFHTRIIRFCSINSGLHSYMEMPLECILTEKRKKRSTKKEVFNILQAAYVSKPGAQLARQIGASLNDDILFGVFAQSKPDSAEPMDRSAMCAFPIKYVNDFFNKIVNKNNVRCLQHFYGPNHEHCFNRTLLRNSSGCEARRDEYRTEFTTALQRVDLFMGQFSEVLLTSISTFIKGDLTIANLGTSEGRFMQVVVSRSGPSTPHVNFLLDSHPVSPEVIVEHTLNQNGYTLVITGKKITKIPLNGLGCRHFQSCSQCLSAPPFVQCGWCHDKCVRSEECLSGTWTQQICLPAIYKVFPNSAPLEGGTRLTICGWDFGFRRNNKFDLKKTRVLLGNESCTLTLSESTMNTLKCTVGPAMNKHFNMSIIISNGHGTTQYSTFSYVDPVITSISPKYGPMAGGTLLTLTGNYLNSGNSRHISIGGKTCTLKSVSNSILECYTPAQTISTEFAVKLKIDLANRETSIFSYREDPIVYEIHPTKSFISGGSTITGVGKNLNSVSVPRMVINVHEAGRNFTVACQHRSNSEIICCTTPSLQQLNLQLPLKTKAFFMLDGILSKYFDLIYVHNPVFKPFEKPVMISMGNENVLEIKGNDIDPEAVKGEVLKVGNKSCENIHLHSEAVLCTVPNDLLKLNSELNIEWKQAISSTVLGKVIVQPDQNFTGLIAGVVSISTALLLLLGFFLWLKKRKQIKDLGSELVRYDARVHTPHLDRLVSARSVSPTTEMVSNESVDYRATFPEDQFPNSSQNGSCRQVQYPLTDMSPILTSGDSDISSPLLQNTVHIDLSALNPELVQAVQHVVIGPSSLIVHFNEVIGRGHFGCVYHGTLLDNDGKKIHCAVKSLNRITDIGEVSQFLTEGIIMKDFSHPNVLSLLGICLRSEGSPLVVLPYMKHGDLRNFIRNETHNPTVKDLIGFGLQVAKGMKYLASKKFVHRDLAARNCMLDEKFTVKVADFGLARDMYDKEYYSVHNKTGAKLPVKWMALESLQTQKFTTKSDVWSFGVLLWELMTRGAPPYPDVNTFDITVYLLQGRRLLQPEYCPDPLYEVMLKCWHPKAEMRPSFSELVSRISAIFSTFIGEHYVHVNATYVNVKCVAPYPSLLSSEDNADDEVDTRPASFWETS

% of control [1]: 22%
SMILES: Cc1cc(-c2ccnc(Nc3cnn(C)c3)n2)ccc1CNC(=O)N1CC(OC(C)C)C1

% of inhibition [2]: 8%
SMILES: CC[C@@H]1[C@H](F)C(=O)N[C@@H]1COc1nccc2cc(C(N)=O)c(OC)cc12 [ZIMLOVISERTIB]

% of inhibition [3]: 8%
SMILES: CN1Cc2nccc(-c3cn(C)nc3-c3ccc(F)cc3)c2C1=O

% of inhibition [4]: -31.5%
SMILES: Cn1cc(-n2cnc3c(NCc4nc5cc(Cl)c(Cl)cc5[nH]4)nc(N4CCOCC4)nc32)cn1

SMILES: Cc1cc(C)cc([C@@H]2c3cc(C)ccc3NC(=O)CN2C(=O)c2ccc(Br)s2)c1
% of activity ([5]; at 1 µM): 99%
% of activity ([5]; at 10 µM): 99%

SMILES: C=CC(=O)Nc1cc(-n2c(=O)ccc3cnc4ccc(-c5ccc(NS(C)(=O)=O)cc5)cc4c32)ccc1C
% of control ([6]; at 1 µM): 98%
% of control ([6]; at 10 µM): 100%

SMILES: CN(C)CCOc1ccc(-c2nc(-c3ccncc3)c(-c3ccc4c(c3)CC/C4=N\O)[nH]2)cc1
% of control [7]: 100%

SMILES: O[C@H]1CC[C@H](Nc2ncc3nc(Nc4c(F)cc(F)cc4F)n([C@H]4CCOC4)c3n2)CC1
% of control [8]: 100%
% of control [9]: 100%
% of control [10]: 5.7%

SMILES: CNC(=O)Nc1ccc(-c2nc(N3CC4CCC(C3)O4)c3cnn(C4CCC5(CC4)OCCO5)c3n2)cc1
% of control [11]: 86%

SMILES: COCCN1CCC(c2cc(CN(C)C(=O)c3cccc(Oc4ccccc4)c3)ccn2)CC1
% activity ([12]; at 1 µM): > 95%
% activity ([12]; at 10 µM): > 90%
